Patent publication US20140243227A1, “CULTURE MEDIA FOR STEM CELLS” (Koninklijke Nederlandse Akademie van Wetenschappen, priority 2011, published 2014)
Read-outs that look alike come from different tables or passages of the source.

What was measured:
human colon crypts = assay: Screening of reagents for optimization of human intestinal organoids culture (plating efficiency); format: cell-based
liver organoids = assay: Liver organoid expansion with PGE2 or arachidonic acid; format: cell-based, human; conditions: for Number and size of liver organoids versus basal medium alone: PGE2 50 nM or AA 10 ug/ml
[1] = test system: human intestinal organoids; assay: Differentiation and proliferation of human intestinal organoids; format: cell-based; conditions: human organoids after withdrawal of Wnt
human colon organoids = assay: Long-term culture of human colon organoids (culture period, passages); format: cell-based; conditions: nicotinamide 10 mM, WENR + gastrin
[2] = test system: colon and liver organoids; assay: GSK3 inhibitor as Wnt replacement in organoid culture media; format: cell-based; conditions: replacement for Wnt
[3] = Second screening (WENR + gastrin + Nicotinamide)

Row | Molecule | Activity (plating efficiency compared with control after 4 days culture) (human colon crypts; [3]) | Activity (plating efficiency compared with control after 4 days culture) (human colon crypts; First screening (WENR)) | other results
1 | Cholera Toxin |  |  | Activity (plating efficiency compared with control after 4 days culture) (human colon crypts): 1+ (key: 0 = no change; 1+ = <50% increase; 2+ = 50-100% increase; 3+ = >100% increase; 1− = 0-50%; 2− = 50-100% decrease; 3− = >100% decrease)
2 | COc1cc2nc(N3CCCN(C)CC3)nc(NC3CCN(Cc4ccccc4)CC3)c2cc1OC [BIX01294] | 1− (1− = 0-50%) |  | 
3 | CCCCC[C@H](O)/C=C/[C@H]1[C@H](O)CC(=O)[C@@H]1C/C=C\CCCC(=O)O [PGE2, prostaglandin E2] |  | 1+ (1+ = <50% increase) | Culturing time without growth reduction (liver organoids; 5 fold expansion per week, 5 weeks without PGE2): at least 8 weeks; Number and size of liver organoids versus basal medium alone (liver organoids): greater number of larger organoids
4 | Cc1ccc(C(=O)Cn2c3c(sc2=N)CCCC3)cc1 [Pifithrin-α] | 0 |  | 
5 | FGF2: growth factor (Peprotech) |  | 0 | 
6 | Exendin4: GLP1 analog; a 39 amino acid peptide |  | 0 | 
7 | c1cc(-c2cnn3cc(-c4ccc(OCCN5CCCCC5)cc4)cnc23)ccn1 [Dorsomorphin] | 0 |  | 
8 | Oc1ccc(-c2nc(-c3ccc(F)cc3)c(-c3ccncc3)[nH]2)cc1 [SB-202190, 4-[4-(4-Fluorophenyl)-5-(4-pyridinyl)-1H-imidazol-2-yl]phenol] |  |  | Goblet and enteroendocrine cell differentiation [1]: strongly inhibited this differentiation
9 | C[C@H](NC(=O)Cc1cc(F)cc(F)c1)C(=O)N[C@H](C(=O)OC(C)(C)C)c1ccccc1 [DAPT] |  |  | Maximal concentration efficiency (liver organoid cultures; titration, hepatocyte marker expression): 10 µM
10 | O=C(O)/C=C(/CCc1ccc(Cl)cc1)c1ccccc1 [PS48] | 0 |  | 
11 | C[C@@H](N)[C@H]1CC[C@H](C(=O)Nc2ccncc2)CC1.Cl.Cl.O [Y27632, R-(+)-trans-4-(1-aminoethyl)-N-(4-Pyridyl)cyclohexanecarboxamide dihydrochloride monohydrate] |  |  | Activity (plating efficiency compared with control after 4 days culture) (human colon crypts): 1+ (key: 0 = no change; 1+ = <50% increase; 2+ = 50-100% increase; 3+ = >100% increase; 1− = 0-50%; 2− = 50-100% decrease; 3− = >100% decrease); Organoid morphology note in Activity column (human colon crypts): cystic
12 | CCCCC/C=C\C/C=C\C/C=C\C/C=C\CCCC(=O)O [AA, Arachidonic acid] |  |  | Number and size of liver organoids versus basal medium alone (liver organoids): greater number of larger organoids
13 | CC(/C=C/C(=O)NO)=C\[C@@H](C)C(=O)c1ccc(N(C)C)cc1 [TSA] |  |  | Result: CYP3AII (liver organoid cultures): −
14 | NC(=O)c1cccnc1 [Nicotinamide] |  | 3+ (3+ = >100% increase) | Prolongation of culture period (human colon organoids): essential for prolongation of culture period beyond the initial 7 days; Goblet and enteroendocrine cell differentiation [1]: strongly inhibited this differentiation
15 | COc1cccc(-c2cc(=O)c3ccccc3o2)c1N [PD98059] | 1− (1− = 0-50%) |  | 
16 | C[C@]12CCC(=O)C=C1CC[C@@H]1[C@@H]2[C@@H](O)C[C@@]2(C)[C@H]1CC[C@]2(O)C(=O)CO [Hydrocortison] |  | 0 | 
17 | O=C1O[C@H]([C@@H](O)CO)C(O)=C1O [L-Ascorbic acid] |  | 0 | 
18 | Cc1nc2sccn2c(=O)c1CCN1CCC(=C(c2ccccc2)c2ccc(F)cc2)CC1 [R 59022] |  |  | Result: CYP3AII (liver organoid cultures): +
19 | Nc1ncn([C@@H]2O[C@H](CO)[C@@H](O)[C@H]2O)c(=O)n1 [5 Azacytidin] | 1− (1− = 0-50%) |  | 
20 | Oc1c2ccccc2c2c3c(cccc13)N=N2 [SP600125] | 0 |  | 
21 | Cc1c[nH]c(-c2cnc(NCCNc3ccc(C#N)cn3)nc2-c2ccc(Cl)cc2Cl)n1 [CHIR99021] |  |  | Wnt agonist activity in the culture media [2]: effective Wnt agonist
22 | O.O.O.O=C(O)c1ncccc1O.O=C(O)c1ncccc1O.[O]=[V] [VO-OHpic trihydrate] | 3− (3− = >100% decrease) |  | 
23 | LIF: growth factor (Millipore) |  | 0 | 
